From patent US8273723B2, “Compositions and methods for improved glycoprotein sialylation” (Sigma-Aldrich Co. LLC, priority 2007, dated 2012)

Assays:
[1] = tested on: CHO Neu3; test: Sialidase assay in the presence of sialidase inhibitors, CHO Neu3; type: biochemical, CHO (Chinese hamster ovary)
Description: (§1) Enzymatic sialidase activity studies were performed to confirm that the proteins coded by these two new genes having the expected functions in CHO cells. Briefly, the coding regions for the Neu1 (SEQ ID NO:1) and Neu3 (SEQ ID NO:3) genes, as well as the coding region of the previously reported Neu2 gene (Ferrari et al. (1994) Glycobiology 4(3):367-373) were cloned into pcDNA3.1 mammalian expression vectors. The expression constructs then were transfected into COS7 cells to overexpress the sialidase proteins. The pcDNA3.1 vector alone was also transfected into COS7 cells as the mock transfection. An expression construct containing green fluorescence protein (GFP) was cotransfected into the COS7 cells to normalize the transfection efficiency.
(§2) Twenty-four hours after transfection, the cells were lysed by sonication. The cell debris was removed by centrifugation at 1000×g for 10 min at 4° C. and the supernatant factions were collected for enzymatic activity. The sialidase assay was performed as previously described (Gramer et al. (1993) Biotechnol Prog 9: 366-373) using 1 mM of 4-methylumbelliferone-Neu5Ac as substrate. For each lysate, 100 μg of protein was used in the assay. The assay was performed in triplicate. […] In fact, the Neu3 protein had more than approximately 6-15 times as much activity as Neu2. […]

[2] = tested on: proteins encoded by the CHO Neu1, Neu2, and Neu3 genes; test: Sialidase assay in the presence of sialidase inhibitors, all sialidases; type: biochemical, CHO (Chinese hamster ovary); details: two concentrations, FIG. 2
Description: as §1, §2

[3] = tested on: Neu1 mRNA; test: Q-RT PCR of Neu1 mRNA in stably shRNA-transduced CHO-hIFNγ cells; type: cell-based, CHO (Chinese hamster ovary); details: FIG. 7A
Description: (§3) The expression of each of the three CHO sialidase genes was knocked down using small interfering RNA (siRNA) technologies. Based on the cDNA sequences, several siRNAs against the CHO sialidase genes (Neu1, Neu2, and Neu3) were designed and synthesized for each gene. These siRNAs were transfected into a CHO cell line stably expressing human interferon gamma (CHO-hIFNγ). The transfections were performed in duplicate. Forty-eight hours after transfection, the cells were harvested. RNA and protein were isolated from the transfected cells. Reverse transcription polymerase chain reaction, (RT-PCR) and quantitative RT-PCR (Q-RT-PCR) using gene-specific primers were performed using standard procedures.
(§4) DNA fragments encoding the effective siRNAs for each sialidase gene (Neu1-S4, Neu2-S3, Neu3-S2) were cloned into the pLKO.1-puro shRNA expression vector. After DNA sequencing confirmation, plasmid DNAs were transfected into HEK293 cells to produce lentivirus packed with shRNA cassettes. After infection of suspension CHO-hIFNγ cells with lentivirus containing shRNA cassettes and puromycin selection, CHO-hIFNγ cells harboring shRNA cassettes for Neu1, Neu2 and Neu3 genes were obtained. Q-RT PCR was performed to confirm gene-silencing effects at the level of mRNA (FIG. 7). […]

[4] = tested on: hIFNγ protein produced by CHO-hIFNγ cells; test: Sialic acid content of purified hIFNγ from shRNA CHO cells by HPLC; type: cell-based, CHO (Chinese hamster ovary); details: for levels of sialic acid in hIFNγ protein versus non-target shRNA control: day 6; for sialic acid content of hIFNγ protein: n=4
Description: The levels of sialic acid were analyzed by HPLC in human IFNγ protein produced by the sialidase shRNA targeted cells and non-target shRNA control cells. Spent media samples were collected from 5 L bioreactor cultures at stationary phase (day 6, cell viability around 95%) and death phase (day 13, cell viability around 20%). Human interferon gamma proteins were purified from cell culture supernatants by immunoaffinity purification. Briefly, after centrifugation and filtration to remove cell debris, 30 ml of a protein sample was loaded on an affinity column conjugated with hIFNγ antibody. After washing the column, hIFNγ protein was eluted with elution buffer. Purification was carried out on an AKTA Explorer 100 chromatographic system (Amersham Biosciences). The purified protein was quantified by ELISA as previously described.
The sialylation of purified hIFNγ proteins were analyzed by HPLC. Briefly, 50 μg of purified hIFNγ protein sample was lyophilized and resuspended in 100 μl of ultrapure water with 2N acetic acid. The sample was hydrolyzed at 80° C. for 3 hours. Then the sample was filtered and speed-vac dried. Released sialic acid residues were derivatized with a fluorogenic compound, 1,2-diamino-4,5-(methylenedioxy)benzene (DMB), followed by HPLC using C18 reverse phase column.

[5] = tested on: Neu2 mRNA; test: Q-RT PCR of Neu2 mRNA in stably shRNA-transduced CHO-hIFNγ cells; type: cell-based, CHO (Chinese hamster ovary); details: FIG. 7B
Description: as §3, §4

[6] = tested on: Neu3 mRNA; test: Q-RT PCR of Neu3 mRNA in stably shRNA-transduced CHO-hIFNγ cells; type: cell-based, CHO (Chinese hamster ovary); details: FIG. 7C
Description: as §3, §4

[7] = tested on: sialidase activity in CHO-hIFNγ cells; test: Sialidase activity assay in CHO-hIFNγ cells harboring shRNA; type: cell-based, CHO (Chinese hamster ovary); details: stable shRNA, FIG. 8
Description: (§5) Twenty-four hours after transfection, the cells were lysed by sonication. The cell debris was removed by centrifugation at 1000×g for 10 min at 4° C. and the supernatant factions were collected for enzymatic activity. The sialidase assay was performed as previously described (Gramer et al. (1993) Biotechnol Prog 9: 366-373) using 1 mM of 4-methylumbelliferone-Neu5Ac as substrate. For each lysate, 100 μg of protein was used in the assay. The assay was performed in triplicate. […] In fact, the Neu3 protein had more than approximately 6-15 times as much activity as Neu2.
as §4, with “7). The mRNA expression knockdown of Neu1 (Neu1-S4) was over 95% in Neu1-shRNA cells (FIG. 7A), about 50% knockdown with Neu2 (Neu2-S3) in Neu2-shRNA cells (FIG. 7B), and over 70% knockdown with Neu3 (Neu3-S2) in Neu3-shRNA cells (FIG. 7C).” for “7).”

[8] = Sialidase assay on lysates of COS7 cells overexpressing CHO sialidase proteins; type: biochemical, CHO (Chinese hamster ovary)
Description: as §1, §5

CC(=O)N[C@H]1[C@H]([C@H](O)[C@H](O)CO)OC(C(=O)O)=C[C@@H]1O [Neu5Ac2en]
decrease of sialidase activity ([1]; 0.1 mM inhibitor): about 30% | reduction of sialidase activity ([1]; 0.5 mM inhibitor): about 60% | inhibitory effect on sialidase activity (comparison of the two inhibitors) [2]: greater inhibitory effects than Neu5Ac

Neu1-S4: siRNA/shRNA against CHO Neu1; sense GGACACUACGCGUCAUCUGtt (SEQ ID NO 10), antisense CAGAUGACGCGUAGUGUCCtt (SEQ ID NO 11) (sense GGACACUACGCGUCAUCUGTT; antisense CAGAUGACGCGUAGUGUCCTT; chemistry not given here; listed as Cricetulus griseus)
mRNA expression knockdown of Neu1 [3]: over 95% | levels of sialic acid in hIFNγ protein versus non-target shRNA control [4]: not significantly different | sialylation of hIFNγ versus non-target shRNA control ([4]; day 13): no obvious improvement

Neu2-S3: siRNA/shRNA against CHO Neu2; sense GACGGAUGAGCAUGCAGAUtt (SEQ ID NO 14), antisense AUCUGCAUGCUCAUCCGUCtt (SEQ ID NO 15) (sense GACGGAUGAGCAUGCAGAUTT; antisense AUCUGCAUGCUCAUCCGUCTT; chemistry not given here; listed as Cricetulus griseus)
mRNA expression knockdown of Neu2 [5]: about 50% | levels of sialic acid in hIFNγ protein versus non-target shRNA control [4]: not significantly different | sialic acid content of hIFNγ protein ([4]; day 6 (stationary phase)): 1.945±0.111 pmol sialic acid/pmol hIFNγ | sialic acid content of hIFNγ protein ([4]; day 13 (death phase)): 4.948±0.150 pmol sialic acid/pmol hIFNγ

Neu3-S2: siRNA/shRNA against CHO Neu3; sense GUACCAGCCGUGUGUUACUtt (SEQ ID NO 18), antisense AGUAACACACGGCUGGUACtt (SEQ ID NO 19) (sense GUACCAGCCGUGUGUUACUTT; antisense AGUAACACACGGCUGGUACTT; chemistry not given here; listed as Cricetulus griseus)
mRNA expression knockdown of Neu3 [6]: over 70% | sialidase activity compared to non-target shRNA control [7]: most dramatic reduction | sialic acid content of hIFNγ protein ([4]; day 6 (stationary phase)): 2.133±0.101 pmol sialic acid/pmol hIFNγ

B1: CHO Neu3: CHO plasma membrane-associated sialidase, 417 aa, SEQ ID NO:4 (protein, listed as Cricetulus griseus)
chain: MEEVSACSLNSTLFQQEHQKGTTYRIPALLYIPPSHTFLAFAEKRSSSKDVDALHLVLRRGVMKGHSVEWGPLQPLMEATLPGHRTMNPCPVWEQSTSRVLLFFICVPDRVTEHWQIRSGKNAARLCFLCSQDAGCSWGEVKDLTEEVIGSELKHWATFAVGPGHGIRLQSGRLIIPTYAYYFSCRFLCFPCSVKPHSLMIYSDDLGVTWHHGKLIGPQVTGECQVAEVTGTSGNLVLYCNARTPNRFRAESFSTDYGDCFQKPTLNTQLCEPRYGCQGSIVSFQPLKMPFSQDPIGKAAPTTQKSPLLDSFLEREEGVGRPSGTWLLYSHPTSKKRRINLGIYYNRNPLEVTCWSRPWILHCGPCGYSDLAVVEEQGLFACLFECGQEHECEQIAFRLFSVQEVLSCEDCTGPSRD
sialidase activity compared to negative control (mock transfection) and positive control (Neu2) ([8]; 100 μg lysate protein, 1 mM 4-methylumbelliferone-Neu5Ac, normalized with GFP readings): significant sialidase activities | sialidase activity relative to Neu2 ([8]; more than approximately, lysates of transfected COS7 cells): 6-15 times | sialic acid content of hIFNγ protein ([4]; day 13 (death phase)): 5.175±0.414 pmol sialic acid/pmol hIFNγ
